Measured values taken from publication PMC3944923, “Intestinal Transportations of Main Chemical Compositions of Polygoni Multiflori Radix in Caco-2 Cell Model” (Evidence-based Complementary and Alternative Medicine : eCAM, 2014).
“Also recorded” adds a separate entry of the source.

Legend:
Caco-2 cell monolayer = Caco-2 cell monolayer transport (absorption, AP → BL), HPLC-DAD; conditions: for absorption by human intestinal epithelial cells, judged from P app against atenolol and propranolol: Caco-2 monolayer, AP → BL; for recovery rate (in words): Caco-2 assay
Protocol: (§1) The cells were left to grow for 21 days to reach confluence and differentiation, so that Caco-2 cells were fully differentiated in this assay and used for further experiments.
(§2) Flux describes the movement of a substance across polarized Caco-2 monolayers either in absorptive (apical → basolateral, AP → BL) or secretary direction (basolateral → apical, BL → AP). Absorption assay was carried out in this research.
(§3) To determine the concentration of corresponding constituents in both AP and BL sides, the lyophilized samples of AP and BL sides were dissolved in quantitative methanol by ultrasound for 20 min and then filtered by 0.45 μm filtration membranes.

[1] = as above; conditions: human
Protocol: as §1, §2, §3

[2] = Caco-2, Recovery rate, total compound in donor and receiver at end / initial compound, Caco-2, 90 min, Mean ± SD, n ≥ 3

absorption by human intestinal epithelial cells, judged from P app against atenolol and propranolol (Caco-2 cell monolayer)	Papp at 1.5 h ([1]; Caco-2)	recovery at 1.5 h [1, 2]	Structure (SMILES)	recovery at 1.5 h ([1]; Caco-2)	recovery rate (in words) (Caco-2 cell monolayer)
hardly absorbed	0.00492 ×10⁻⁶ cm/s	59.9 ± 9.9%	OC[C@H]1O[C@@H](Oc2cc(O)cc(/C=C/c3ccc(O)cc3)c2)[C@H](O)[C@@H](O)[C@@H]1O [PL, polydatin]	–	–
–	0.0607 ×10⁻⁶ cm/s	~100%	CC(C)NCC(O)COc1cccc2ccccc12 (stereo not drawn) [PR, Propranolol, reference compound]	–	–
partly absorbed	0.0178 ×10⁻⁶ cm/s	62.4 ± 6.21%	Oc1ccc(/C=C/c2cc(O)cc(O)c2)cc1 [RL, resveratrol]	–	–
partly absorbed	0.0171 ×10⁻⁶ cm/s	~100%	O=C(O)c1cc(O)c2c(c1)C(=O)c1cccc(O)c1C2=O [RN, rhein]	–	–

Structure (SMILES)	absorption by human intestinal epithelial cells, judged from P app against atenolol and propranolol (Caco-2 cell monolayer)	Papp at 1.5 h ([1]; Caco-2)	recovery at 1.5 h [1, 2]	recovery at 1.5 h ([1]; Caco-2)	recovery rate (in words) (Caco-2 cell monolayer)
O=C1c2cccc(O)c2C(=O)c2c(O)cc(CO)cc21 [AE, aloe-emodin]	partly absorbed	0.0195 ×10⁻⁶ cm/s	–	42.4 ± 6.32%	–
Cc1cc(O)c2c(c1)C(=O)c1cc(O)cc(O)c1C2=O [EN, emodin]	–	0.00248 ×10⁻⁶ cm/s	–	14.5 ± 2.5%	poor recovery rates; also recorded: low recovery rates
OC[C@H]1O[C@@H](Oc2c(O)cc(O)cc2/C=C/c2ccc(O)cc2)[C@H](O)[C@@H](O)[C@@H]1O [TSG, 2,3,5,4′-tetrahydroxystilbene-2-O-β-D-glucoside]	hardly absorbed; also recorded: poorly absorbed	0.00237 ×10⁻⁶ cm/s	17.4 ± 1.6%	–	poor recovery rates; also recorded: low recovery rates
